EP1633374B1, “COMPOSITION CONSISTING OF ALKANE DICARBOXYLIC ACIDS AND A PHARMACEUTICALLY ACTIVE INGREDIENT” (Intendis GmbH, priority 2003, dated 2004)
“Also recorded” adds a separate entry of the source.

Test system: durch Crotonöl entzündete Maushaut
Experiment: Croton oil-induced inflammation of the mouse ear (irritant contact dermatitis model), leukocyte infiltration of the skin
Assay type: in vivo, Maus
Conditions: for Inhibition [%] der Hautinfiltration * von Granulozyten & Monozyten (Myelo-Peroxidaseaktivität) / Inhibition [%] der Hautinfiltration * von Neutrophilen Elastaseaktivität: Crotonöl challenge, mouse ear skin, topical treatment in Ethanol/Isopropylmyristat, inhibition vs Crotonöl + Vehikel (0 %), 100 % = Vehikel/Vehikel, significance given (n.s. or p<0.05); for therapeutische Effekte im Vergleich zum Vehikel: inflammation model, in Ethanol/Isopropylmyristat, Peroxidase- and Elastase-Aktivität in der Haut, result in words
Source text: Die Induktion einer entzündlichen Reaktion (irritative Kontaktdermatitis) ist ein weit verbreitetes Modell zur pharmakologischen Evaluierung des anti - inflammatorischen Potentials von topisch oder systemisch applizierten Testsubstanzen. (Trancik and Lowe (1985) Evaluation of topical nonsteroidal anti - inflammatory agents, Models in Dermatology, H. Maibach and N.J. Lowe, Basel Karger: 35 - 42) Es hat sich unter anderem bei der Testung von nicht - steroidalen Antiphlogistika sowie bei Glukokortikosteroiden bewährt und gilt als der am besten reproduzierbare in vivo Testversuch für die Evaluierung topischer anti - inflammatorischer Substanzen (Lorenzetti (1975) Animal to Clinical Correlation of Topical Anti - Inflammatory Efficacy, Animal models in dermatology. H. Maibach, Basel Karger: 212 - 224)
Die Induktion einer entzündlichen Reaktion (irritative Kontaktdermatitis) ist ein weit verbreitetes Modell zur pharmakologischen Evaluierung des anti - inflammatorischen Potentials von topisch oder systemisch applizierten Testsubstanzen (Trancik and Lowe (1985) Evaluation of topical nonsteroidal anti - inflammatory agents, Models in Dermatology, H. Maibach and N.J. Lowe. Basel, Karger: 35 - 42). Es hat sich u.a. bei der Testung von nicht - steroidalen Antiphlogistika sowie bei Glukokortikosteroiden bewährt und gilt als der am besten reproduzierbare in vivo Versuch für die Evaluierung topischer anti - inflammatorischer Substanzen (Lorenzetti (1975) Animal to Clinical correlation of Topical Anti - inflammatory Efficacy. Animal models in dermatology. H. Maibach. Basel Karger: 212 - 225).
Die Applikation des Phorbolesters Crotonöl auf Mäuseohren führt zu einer akuten, entzündlichen Reaktion mit Ödem und Einwanderung von vorwiegend polymorphkernigen Granulozyten, die binnen 24h ihr Maximum erreicht. Testsubstanzen können hierbei entweder präventiv (d.h. vor Applikation des entzündlichen Reizes) oder simultan mit Crotonöl appliziert werden. Die Crotonöl - induzierte Entzündung am Mäuseohr ist nicht nur ein Modell der irritativen und/oder allergischen Kontaktdermatitis, sondern auch anderer Hauterkrankungen, die mit einer starken Entzündung und Einwanderung von Granulozyten verbunden sind. Hierzu zählen die Psoriasis, atopische Dermatitis, Akne vulgaris und das entzündliche Stadium der Rosacea.
Erstaunlicher Weise wurde gefunden, dass eine Kombinationstherapie von Metronidazol (0.75%) und Azelainsäure (20%) in Ethanol/Isopropylmyristat im Vergleich zum Vehikel signifikant therapeutisch effektiv waren, wohingegen die beiden Einzelsubstanzen Metronidazol (0.75%) bzw. […] Die Wirksamkeit beinhaltete u.a. die Einwanderung von Leukozyten gemessen als Peroxidase-Aktivität in der Haut sowie die Einwanderung von neutrophilen Granulozyten gemessen als Elastase-Aktivität in der Haut (Tabelle 1).
Die Leukozyteninfiltration in die durch Crotonöl entzündete Maushaut wird durch die kombinierte Behandlung mit Azelainsäure und Metronidazol im Vergleich zu Vehikelbehandlung signifikant inhibiert, wohingegen die einzelnen Wirkstoffe nicht so effektiv waren.

SMILES | Inhibition [%] der Hautinfiltration * von Granulozyten & Monozyten (Myelo-Peroxidaseaktivität) | Inhibition [%] der Hautinfiltration * von Neutrophilen Elastaseaktivität | therapeutische Effekte im Vergleich zum Vehikel
O=C(O)CCCCCCCC(=O)O [Azelainsäure (20%), Azelainsäure] | 21 (n.s.) * % | 11 (n.s.) * % | keine so hohen, therapeutischen Effekte; also recorded: keine so hohe, therapeutische Effekte
C[C@H]1C[C@@H]2[C@H]([C@@H](O)C[C@@]3(C)[C@H]2CC[C@]3(O)C(=O)CO)[C@@]2(C)C=CC(=O)C=C12 [Methylprednisolon] | 90 (p<0.05) ^* % | 95 (p<0.05) ^* % | 
Cc1ncc([N+](=O)[O-])n1CCO [Metronidazol (0.75%), 1-(2-hydroxyethyl)-2-methyl-5-nitroimidazol] | 9 (n.s.) * % | 18 (n.s.) * % | keine so hohen, therapeutischen Effekte; also recorded: keine so hohe, therapeutische Effekte
